Paper PMC9124866, “Structure-Activity Relationships of Dopamine Transporter Pharmacological Chaperones” (Frontiers in Cellular Neuroscience, 2022)
Structures can show the parent of a compound that is named as a salt. Where two headings read alike, the source gives them in different places.

Assays:
[1] = biological target: T1, K590A DAT (Homo sapiens, UniProt Q01959, K590A); assay: Western blot of mature K590A DAT protein levels; type: cell-based; settings: overnight treatment
T1 construct: expressed in transfected cells; host or cells: HEK293
Description: (§1) Cells (1 × 10^6 cells/well) were seeded onto a 6-well plate and incubated for 24 h. Cells were then treated with drugs and incubated for 16 h. After the incubation period, cells were lysed in RIPA buffer supplemented with protease inhibitors (working concentrations: pepstatin A, 5 μg/mL; leupeptin, 10 μg/mL; aprotinin, 1.5 μg/mL; benzamidine, 0.1 μg/mL; PMSF, 0.1 mM) on ice. At 4°C, cell lysates were gently shaken for 15 min followed by centrifugation at 15,000 rpm for 15 min to pellet debris. The Pierce BCA protein assay kit (Thermo Fisher Scientific, Canada) was used to determine the protein concentration of the supernatant. To reach a concentration of 40 μg of protein per 20 μL, samples were diluted in fresh RIPA buffer with 12.5% Laemmli sample buffer and 2.5% β-Mercaptoethanol prior to being heated to 55°C. The protein was then loaded on a 7.5 or 10% SDS-PAGE gel and run at 100 V for approximately an hour or until the dye front reached the bottom of the gel. Next, protein was transferred to a PVDF membrane at 22 V for 16 h or 100 V for 1 h. Blots were blocked with LI-COR blocking buffer for 1 h and incubated for 1 h at room temperature with rabbit anti-GFP (1:1,000 dilution; Life Technologies, cat#A11122). After washing three times with TBST, blots were incubated with goat anti-rabbit IRDye-680RD secondary antibody (1:15,000; LI-COR, cat#926-68071). As a loading control, blots were incubated with mouse anti-GAPDH (1:5,000, Sigma-Aldrich, Canada, cat#G8795) prior to secondary antibody goat anti-mouse IRDye-800GR (1:5,000 dilution, Rockland, Limerick, PA, cat#610-132-007). All antibodies were diluted in LI-COR blocking buffer. Additionally, REVERT total protein staining (LI-COR, Lincoln, NE) was used as a loading control. […] Mature, fully glycosylated DAT (mDAT = 110 kDa) and immature, ER-resident DAT (iDAT = 75 kDa) were visualized using the Odyssey Imaging System (LI-COR, Lincoln, NE) and Image Studio Version 5.2 software (Supplementary Figure 1).
(§2) We next assessed whether drugs that increase DAT surface expression also increase total protein levels of DAT. Cells expressing YFP-HA-DAT were incubated with select test compounds and DAT protein levels were examined by western blot. The effects of the compounds were assessed on WT DAT and K590A DAT. The K590A mutant is a well-characterized ER-retained, trafficking-deficient DAT mutant ([Miranda et al., 2004]) that can be rescued by pharmacological chaperones ([Beerepoot et al., 2016]).
(§3) FIGURE 5 Effect of noribogaine, tetrahydroharmine, PAL-594, bicifadine, and RTI-20 on WT and K590A DAT expression. […] (B) Quantification of WT mDAT protein levels. […] (D) Quantification of K590A mDAT protein levels. […]

[2] = biological target: T2, YFP-HA-βlac-DAT (Homo sapiens, UniProt Q01959); assay: β-lactamase (βlac) surface expression assay; type: cell-based; settings: assumed effective EMax
Description: The βlac surface expression assay was performed by following the method outlined in [Lam et al. (2013)] and [Beerepoot et al. (2015], [2016)]. The assay substrate nitrocefin (BD biosciences) was dissolved in dimethyl sulfoxide (DMSO) at a concentration of 10 mM and frozen at −80°C. Immediately before use, it was thawed and diluted to a final concentration of 100 μM in phosphate buffered saline (PBS). Cells (1 × 10^5/well) were seeded into a poly-D-lysine-coated 48-well plate and incubated for 24 h, prior to drug treatment. Drugs were added to individual wells at varying concentrations and incubated for 16 h. Subsequently, the media was aspirated, and the cells were washed twice with PBS. After removal of the final PBS wash, 200 μL of the nitrocefin solution was added to each well and the absorbance was immediately read. The EPOCH microplate spectrophotometer (BioTek) was used to measure absorbance (486 nm) for each well every minute for 30 min. The rate of reaction (slope of the curve) was used as the readout for the assay ([Beerepoot et al., 2015]). To determine suitable concentration ranges for each drug, they were dissolved in PBS or DMSO at the highest concentration possible. From here, the solutions were serial diluted 1/10 to yield 8 different concentrations. βLAC cells were then treated with the varying drug concentrations and cell viability was recorded using light microscopy. For additional measure, nitrocefin was added and the absorbance was read. For certain cases, Trypan Blue was used to quantitatively differentiate increased cell death from reduced cell division. […] Five or six doses were generally used in subsequent dosing experiments, starting at the highest non-toxic concentration.
Data analysis was performed using GraphPad Prism (GraphPad Software, La Jolla, CA). Linear regression analysis was performed on βLAC time points to determine the slope, thus the rate of reaction, for comparison. Furthermore, the slope was also used to determine the degree of dopamine uptake in the dopamine uptake assays. Non-linear regression, fitting to the log(agonist) vs. response and log(inhibitor) vs. response model curve, was used to determine dose-response relationships of surface expression and uptake assays, respectively. One-way ANOVA with Dunnett’s post hoc-test was used for the β-lactamase assay and one-way ANOVA with Bonferroni correction was used for western blot analysis.
Among these were RTI-1, RTI-2, RTI-5, RTI-6, RTI-11, RTI-20, and PAL-1007. […] The EMax values of all the analyzed drugs are included in Figure 1.
The pharmacological chaperone ability of the 15 ibogaine and tryptamine analogs, shown in Figure 3, were measured using the βlac surface expression assay. HEK cells expressing YFP-HA-βlac-DAT were incubated overnight with these compounds at concentrations varying by log and half-log dilutions, starting at 100 μM final concentration. […] Furthermore, it was important to determine whether the β-carboline analogs could also elicit a chaperone effect because they are not classified as DAT ligands ([Cao et al., 2007]). […] Removing the nitrogen from the ring reduced efficacy as observed with frovatriptan (103 ± 1.4%). […] Evodiamine (54 ± 1.7%) had no chaperone ability and caused a substantial reduction in the surface expression of DAT. Dose-response curves were generated to assess the pharmacological chaperone potencies of select compounds (Figure 4).

[3] = biological target: T3, WT DAT (YFP-HA-DAT) (Homo sapiens, UniProt Q01959); assay: Western blot of mature WT DAT protein levels; type: cell-based; settings: overnight 100 μM
T3 construct: expressed in transfected cells; host or cells: HEK293
Description: as §1, §2, §3

[4] = biological target: T2, YFP-HA-βlac-DAT; design: method as in Beerepoot et al., 2016; settings: previous experiments; ref Beerepoot et al., 2016; cited from earlier work
[5] = biological target: T4, DAT (Homo sapiens, UniProt Q01959); settings: read-out: IC50, dopamine uptake inhibition; ref Carroll et al., 2009; cited from earlier work
T4 construct: expressed in transfected cells

[6] = biological target: T4, DAT; settings: read-out: Ki, DAT binding; ref Carroll et al., 2009; cited from earlier work
[7] = biological target: T4, DAT; assay: Dopamine uptake inhibition dose response of hit compounds (Figure 6); type: cell-based; settings: doses 1 nM to 100 μM, normalized to vehicle
Description: Dopamine uptake inhibition was conducted using the Neurotransmitter Transporter Uptake Assay Kit (Molecular Devices, prod#R8173). Cells (1 × 10^5/well) were seeded into 96-well plates and incubated for 24 h. The cells were subjected to overnight drug treatment. The following day, wells were washed and incubated for 30 min with a mixture of 1X Hank’s Balanced Salt Solution (HBSS) and 0.1% Bovine Serum Albumin (BSA) Buffer. Dopamine uptake inhibitors were added during the incubation period. Following the incubation, the fluorescent dye was added, and the plate was immediately transferred to the bottom-read fluorescence microplate reader (Spectramax M3, Molecular Devices) for kinetic read-mode. The assay reads the amount of fluorescent activity which increases as fluorescent dye molecules are transported into the cells by the DAT. The read-out for this assay is the slope which equals the fluorescent measurements/time, ultimately denoting the uptake rate.
Data analysis was performed using GraphPad Prism (GraphPad Software, La Jolla, CA). Linear regression analysis was performed on βLAC time points to determine the slope, thus the rate of reaction, for comparison. Furthermore, the slope was also used to determine the degree of dopamine uptake in the dopamine uptake assays. […]

[8] = HEK293, read-out: EMax (%), WT DAT surface expression, HEK cells expressing YFP-HA-βlac-DAT, overnight (16 h) incubation, up to 100 μM, normalized to vehicle
[9] = HEK293, HEK cells expressing YFP-HA-βlac-DAT, overnight (16 h) incubation, up to 100 μM, normalized to vehicle, read-out: EMax (%), WT DAT surface expression

T4 sequence (Q01959 whole entry): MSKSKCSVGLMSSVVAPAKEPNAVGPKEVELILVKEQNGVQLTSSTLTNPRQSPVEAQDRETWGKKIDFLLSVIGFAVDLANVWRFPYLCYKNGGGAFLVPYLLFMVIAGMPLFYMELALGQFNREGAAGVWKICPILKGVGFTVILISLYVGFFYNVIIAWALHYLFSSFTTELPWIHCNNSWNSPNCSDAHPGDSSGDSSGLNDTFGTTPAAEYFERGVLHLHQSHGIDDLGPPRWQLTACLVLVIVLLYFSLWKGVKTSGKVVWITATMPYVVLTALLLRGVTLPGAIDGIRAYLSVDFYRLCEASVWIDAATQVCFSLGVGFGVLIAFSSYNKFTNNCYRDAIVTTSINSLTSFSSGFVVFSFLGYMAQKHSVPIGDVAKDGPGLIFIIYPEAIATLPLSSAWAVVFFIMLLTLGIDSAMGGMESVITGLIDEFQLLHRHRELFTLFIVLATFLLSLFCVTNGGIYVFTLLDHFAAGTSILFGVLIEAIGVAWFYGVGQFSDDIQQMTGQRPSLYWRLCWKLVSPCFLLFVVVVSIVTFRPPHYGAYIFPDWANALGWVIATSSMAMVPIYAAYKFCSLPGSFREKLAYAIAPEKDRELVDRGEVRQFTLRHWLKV
T2 sequence (Q01959 1-171 limits assumed): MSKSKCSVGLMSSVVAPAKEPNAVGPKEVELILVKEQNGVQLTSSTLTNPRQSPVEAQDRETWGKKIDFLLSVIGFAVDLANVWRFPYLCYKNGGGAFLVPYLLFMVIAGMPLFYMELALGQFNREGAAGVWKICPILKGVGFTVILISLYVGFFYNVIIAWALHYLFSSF
T2 sequence (Q01959 237-620 limits assumed): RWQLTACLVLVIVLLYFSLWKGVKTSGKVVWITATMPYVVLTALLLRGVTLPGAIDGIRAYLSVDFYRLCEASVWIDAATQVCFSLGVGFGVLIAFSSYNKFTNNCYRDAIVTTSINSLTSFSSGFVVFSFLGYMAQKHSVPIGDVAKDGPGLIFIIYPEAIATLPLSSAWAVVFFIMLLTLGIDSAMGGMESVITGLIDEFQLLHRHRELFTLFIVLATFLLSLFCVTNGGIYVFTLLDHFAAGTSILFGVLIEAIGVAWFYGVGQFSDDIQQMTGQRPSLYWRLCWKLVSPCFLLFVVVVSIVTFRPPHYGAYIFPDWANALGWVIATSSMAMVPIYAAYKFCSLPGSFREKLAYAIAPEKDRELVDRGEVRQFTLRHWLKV
T1 sequence (Q01959 whole entry K590A): as the sequence (Q01959 whole entry) above, with K590A counted along it
T3 sequence (Q01959 whole entry): as the sequence (Q01959 whole entry) above

Molecule | K590A DAT (mDAT) protein levels [1] | Emax [2, 8] [%] | mature WT DAT (mDAT) protein levels [3] | previously reported increase of WT DAT surface expression (EMax) [4] [%] | Emax [2, 9] [%] | other results
Cc1ccc(C23CNCC2C3)cc1 (stereo not drawn) [Bicifadine, bicifadine] | statistically significant effect | 149 ± 15 | significantly increase |  |  | 
CC(NC(C)(C)C)C(=O)c1cccc(Cl)c1 (stereo not drawn) [Bupropion, Bupropion hydrochloride, reference compound] |  | 144 ± 7.7 |  | 137 |  | 
CC1NCCOC1c1cccc(Cl)c1 (stereo not drawn) [PAL-594] | statistically significant effect |  | significantly increase |  | 166 ± 8.7 | 
Cc1ccc(C(=O)C(C)NC(C)(C)C)cc1 (stereo not drawn) [RTI-5] |  |  |  |  | 140 ± 5.5 | IC50 [5]: 6.84 µM; Ki [6]: > 10 µM
CCCC(NC(C)(C)C)C(=O)c1cccc(Cl)c1 (stereo not drawn) [RTI-12] |  |  |  |  | 113 ± 6.3 | maximal dopamine uptake inhibition [7]: 96%
ibogaine [reference compound] |  |  |  | 187 |  | EMax (%), WT DAT surface expression ([2]; HEK cells expressing YFP-HA-βlac-DAT, overnight (16 h) incubation, up to 100 μM, normalized to vehicle): 222 ± 7.9%
